In patent publication US20080064667A1, “OXAZOLE DERIVATIVES OF TETRACYCLINES” (Wyeth, priority 2003, published 2008):
In brackets after ≈: the same amount, converted by molar mass.

Key:
Test in all cases: MIC, broth microdilution (NCCLS)
Type in all cases: cell-based
[1] = tested on: S. aureus GC2216 (ATCC Control); details: Staphylococcus aureus, Mueller-Hinton II broth, 18-22 hours at 35° C.
Summary of the method: (§1)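 MICs determined in cation-standard Mueller-Hinton II broth with serial drug dilutions, each strain inoculated to 10^5 CFU/ml. Incubation: 35 °C, ambient air, 18-22 h, following NCCLS broth microdilution guidance.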

[2] = tested on: S. aureus GC6467 (tet(M) + (K)); details: Staphylococcus aureus
Summary of the method: as §1

[3] = tested on: E. faecalis GC2267 (tet(L) + (M) + (S)); details: Enterococcus faecalis
Summary of the method: as §1

[4] = tested on: S. pneumoniae* GC4465 (Clinical); details: Streptococcus pneumoniae, Mueller-Hinton II broth, 18-22 hours at 35° C.
Summary of the method: as §1

[5] = tested on: S. aureus GC4536 (Smith MP -In Vivo); details: Staphylococcus aureus, Mueller-Hinton II broth, 18-22 hours at 35° C.
Summary of the method: as §1

[6] = tested on: H. influenzae<> GC6896 (ATCC Control); details: Haemophilus influenzae, Mueller-Hinton II broth, 18-22 hours at 35° C.
Summary of the method: as §1

[7] = tested on: M. catarrhalis* GC6907 (Clinical); details: Moraxella catarrhalis, Mueller-Hinton II broth, 18-22 hours at 35° C.
Summary of the method: as §1

[8] = tested on: S. pneumoniae* GC1894 (Clinical); details: Streptococcus pneumoniae, Mueller-Hinton II broth, 18-22 hours at 35° C.
Summary of the method: as §1

[9] = tested on: S. pyogenes* GC4563 (Clinical); details: Streptococcus pyogenes, Mueller-Hinton II broth, 18-22 hours at 35° C.
Summary of the method: as §1

[10] = tested on: S. aureus GC6466 (tet(M)); details: Staphylococcus aureus, Mueller-Hinton II broth, 18-22 hours at 35° C.
Summary of the method: as §1

[11] = tested on: E. coli GC2270 (tet(M)); details: Escherichia coli
Summary of the method: as §1

[12] = tested on: S. aureus GC1131 (Clinical); details: Staphylococcus aureus, Mueller-Hinton II broth, 18-22 hours at 35° C.
Summary of the method: as §1

[13] = tested on: E. faecalis GC2242 (Van-resistant); details: Enterococcus faecalis, Mueller-Hinton II broth, 18-22 hours at 35° C.
Summary of the method: as §1

[14] = tested on: E. coli GC4559 (parent GC4560); details: Escherichia coli, Mueller-Hinton II broth, 18-22 hours at 35° C.
Summary of the method: as §1

[15] = tested on: C. albicans GC3066 ATCC (Control); details: Candida albicans, Mueller-Hinton II broth, 18-22 hours at 35° C.
[16] = tested on: E. faecalis GC4555 (ATCC Control); details: Enterococcus faecalis, Mueller-Hinton II broth, 18-22 hours at 35° C.
Summary of the method: as §1

[17] = tested on: S. aureus GC1079 (tet(K)); details: Staphylococcus aureus, Mueller-Hinton II broth, 18-22 hours at 35° C.
Summary of the method: as §1

[18] = tested on: E. coli GC4560 (IMP mutant); details: Escherichia coli
Summary of the method: as §1

[19] = tested on: E. coli GC2203 (ATCC Control); details: Escherichia coli, Mueller-Hinton II broth, 18-22 hours at 35° C.
Summary of the method: as §1

[20] = tested on: E. coli GC1073 (tet(B)); details: Escherichia coli
Summary of the method: as §1

| SMILES | MIC [1] | MIC [2] | MIC [3] | MIC [4] | MIC [5] | MIC [6] | MIC [7] | MIC [8] | MIC [9] | MIC [10] | MIC [11] | MIC [12] | MIC [13] | MIC [14] | MIC [15] | MIC [16] | MIC [17] | MIC [18] | MIC [19] | MIC [20] |
| --- | --- | --- | --- | --- | --- | --- | --- | --- | --- | --- | --- | --- | --- | --- | --- | --- | --- | --- | --- | --- |
| CN(C)c1cc2nc(CN3CCCC3)oc2c2c1C[C@H]1C[C@H]3[C@H](N(C)C)C(O)=C(C(N)=O)C(=O)[C@@]3(O)C(O)=C1C2=O [Example 37, (6aR,7aS,8S,11aS)-5,8-bis(dimethylamino)-9,11a,12-trihydroxy-11,13-dioxo-2-(pyrrolidin-1-ylmethyl)-6,6a,7,7a,8,11,11a,13-octahydrotetraceno[2,1-d][1,3]oxazole-10-carboxamide] | 4 µg/mL (≈ 7.07 µM) | 8 µg/mL (≈ 14.1 µM) | 4 µg/mL (≈ 7.07 µM) | 1 µg/mL (≈ 1.77 µM) | 4 µg/mL (≈ 7.07 µM) | 4 µg/mL (≈ 7.07 µM) | 1 µg/mL (≈ 1.77 µM) | 1 µg/mL (≈ 1.77 µM) | 1 µg/mL (≈ 1.77 µM) | 4 µg/mL (≈ 7.07 µM) | 4 µg/mL (≈ 7.07 µM) | 4 µg/mL (≈ 7.07 µM) | 2 µg/mL (≈ 3.54 µM) | 2 µg/mL (≈ 3.54 µM) | > 64 µg/mL | 2 µg/mL (≈ 3.54 µM) | 4 µg/mL (≈ 7.07 µM) | 1 µg/mL (≈ 1.77 µM) | 2 µg/mL (≈ 3.54 µM) | – |
| CCCCNCc1nc2cc(N(C)C)c3c(c2o1)C(=O)C1=C(O)[C@]2(O)C(=O)C(C(N)=O)=C(O)[C@@H](N(C)C)[C@@H]2C[C@@H]1C3 [Example 39, (6aR,7aS,8S,11aS)-2-[(butylamino)methyl]-5,8-bis(dimethylamino)-9,11a,12-trihydroxy-11,13-dioxo-6,6a,7,7a,8,11,11a,13-octahydrotetraceno[2,1-d][1,3]oxazole-10-carboxamide] | 32 µg/mL (≈ 56.4 µM) | > 64 µg/mL | 64 µg/mL (≈ 113 µM) | 8 µg/mL (≈ 14.1 µM) | 32 µg/mL (≈ 56.4 µM) | 64 µg/mL (≈ 113 µM) | 8 µg/mL (≈ 14.1 µM) | 8 µg/mL (≈ 14.1 µM) | 8 µg/mL (≈ 14.1 µM) | 32 µg/mL (≈ 56.4 µM) | – | 32 µg/mL (≈ 56.4 µM) | 32 µg/mL (≈ 56.4 µM) | 32 µg/mL (≈ 56.4 µM) | > 64 µg/mL | 32 µg/mL (≈ 56.4 µM) | 64 µg/mL (≈ 113 µM) | 8 µg/mL (≈ 14.1 µM) | 32 µg/mL (≈ 56.4 µM) | – |
| CN(C)c1cc2nc(CCl)oc2c2c1C[C@H]1C[C@H]3[C@H](N(C)C)C(O)=C(C(N)=O)C(=O)[C@@]3(O)C(O)=C1C2=O [Example 35, (6aR,7aS,8S,11aS)-2-(chloromethyl)-5,8-bis(dimethylamino)-9,11a,12-trihydroxy-11,13-dioxo-6,6a,7,7a,8,11,11a,13-octahydrotetraceno[2,1-d][1,3]oxazole-10-carboxamide] | 0.5 µg/mL (≈ 0.942 µM) | 8 µg/mL (≈ 15.1 µM) | 4 µg/mL (≈ 7.53 µM) | 0.5 µg/mL (≈ 0.942 µM) | 1 µg/mL (≈ 1.88 µM) | 2 µg/mL (≈ 3.77 µM) | 0.5 µg/mL (≈ 0.942 µM) | 0.25 µg/mL (≈ 0.471 µM) | 0.25 µg/mL (≈ 0.471 µM) | 1 µg/mL (≈ 1.88 µM) | 16 µg/mL (≈ 30.1 µM) | 0.5 µg/mL (≈ 0.942 µM) | 1 µg/mL (≈ 1.88 µM) | 8 µg/mL (≈ 15.1 µM) | > 64 µg/mL | 1 µg/mL (≈ 1.88 µM) | 4 µg/mL (≈ 7.53 µM) | 0.5 µg/mL (≈ 0.942 µM) | 4 µg/mL (≈ 7.53 µM) | 32 µg/mL (≈ 60.3 µM) |
| CCCCCCOc1ccc(-c2nc3cc(N(C)C)c4c(c3o2)C(=O)C2=C(O)[C@]3(O)C(=O)C(C(N)=O)=C(O)[C@@H](N(C)C)[C@@H]3C[C@@H]2C4)cc1 [Example 32, (6aR,7aS,8S,11aS)-5,8-bis(dimethylamino)-2-[4-(hexyloxy)phenyl]-9,11a,12-trihydroxy-11,13-dioxo-6,6a,7,7a,8,11,11a,13-octahydrotetraceno[2,1-d][1,3]oxazole-10-carboxamide] | > 64 µg/mL | > 64 µg/mL | > 64 µg/mL | 16 µg/mL (≈ 24.3 µM) | > 64 µg/mL | > 64 µg/mL | 32 µg/mL (≈ 48.6 µM) | 8 µg/mL (≈ 12.1 µM) | 16 µg/mL (≈ 24.3 µM) | > 64 µg/mL | > 64 µg/mL | > 64 µg/mL | 64 µg/mL (≈ 97.2 µM) | > 64 µg/mL | > 64 µg/mL | 64 µg/mL (≈ 97.2 µM) | > 64 µg/mL | > 64 µg/mL | > 64 µg/mL | > 64 µg/mL |
